Test results taken from patent US20230105212A1, “BIPHENYL DERIVATIVE INHIBITOR, PREPARATION METHOD THEREFOR AND USE THEREOF” (SHANGHAI HANSOH BIOMEDICAL CO., LTD., priority 2020, published 2023).
Where two headings read alike, the source gives them in different places.

Assays:
[1] = biological target: T1, human PD-L1 protein (Homo sapiens, UniProt Q9NZQ7); assay: Thermal shift: melting temperature of PD-L1 protein; type: binding; settings: read-out: ΔTm (° C.)
T1 construct: purchased Acro Biosystems PD1-H5229
Method in brief: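 Human PD-L1 at 2 μM final was tested in […], 150 mM NaCl with SYPRO Orange, heated 25→95 °C at 0.03 °C/s in a PCR melt-curve run. Tm was taken per treatment; ΔTm is the shift relative to DMSO vehicle.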

[2] = biological target: T2, PD-L1 protein on the surface of MC38-hPDL1 tumor cells (Homo sapiens, UniProt Q9NZQ7); assay: Induction of endocytosis of PD-L1 on the surface of tumor cells (flow cytometry); type: cell-based; settings: 16 hours incubation; for Emax: MC38-hPDL1 cells, read-out: MC38 maximum endocytosis rate; for IC50: inducing endocytosis of PD-L1, MC38-hPDL1 cells, read-out: MC38 IC50
T2 construct: expressed in transfected cells; host or cells: MC38-hPDL1 (mouse colon cancer cells)
Method in brief: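 IC50 comes from nonlinear fits of endocytosis rate, calculated from the loss of surface PE-anti-CD274 flow signal relative to vehicle. Cells were MC38 mouse colon cancer cells engineered to express high human PD-L1. Compound exposure lasted 16 h at 37 °C, 5% CO2.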

[3] = biological target: T3, human PD-1/PD-L1 binding (Homo sapiens, UniProt Q9NZQ7); assay: Inhibition of human PD-1/PD-L1 binding (TR-FRET/HTRF); settings: TR-FRET, PD-L1-His and PD-1-Fc; read-out: PD-1/PD-L1 binding IC50
T3 construct: PD-L1-His protein (19 to 238 amino acids) (Abcam #ab167713); purchased Abcam (PD-L1-His); R&D (PD-1-Fc) ab167713; 1086-PD
Method in brief: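 PD-L1-His (aa 19–238, diluted to 10 nM) and PD-1-Fc (aa 25–167, diluted to 20 nM) incubated with compounds (10 μM or 1 μM top, 3-fold, 11 doses) 60 min at room temperature, then anti-6HIS Eu cryptate/anti-human IgG-XL665 added for 3 h RT or overnight 4 °C. HTRF 665/620 nm ratio gave inhibition and IC50.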

[4] = compound 10 μM, PD-L1 protein 2 μM, Tm minus DMSO vehicle control

T1 sequence (Q9NZQ7 19-238 limits assumed): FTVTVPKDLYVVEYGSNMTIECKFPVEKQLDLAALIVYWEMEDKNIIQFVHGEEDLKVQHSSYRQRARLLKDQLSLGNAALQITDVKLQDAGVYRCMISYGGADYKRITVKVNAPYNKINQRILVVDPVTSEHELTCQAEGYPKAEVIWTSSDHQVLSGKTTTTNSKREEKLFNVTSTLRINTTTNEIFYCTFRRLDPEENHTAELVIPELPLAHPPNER
T3 sequence (Q9NZQ7 19-238): as the sequence (Q9NZQ7 19-238 limits assumed) above
T2 sequence (Q9NZQ7 19-290): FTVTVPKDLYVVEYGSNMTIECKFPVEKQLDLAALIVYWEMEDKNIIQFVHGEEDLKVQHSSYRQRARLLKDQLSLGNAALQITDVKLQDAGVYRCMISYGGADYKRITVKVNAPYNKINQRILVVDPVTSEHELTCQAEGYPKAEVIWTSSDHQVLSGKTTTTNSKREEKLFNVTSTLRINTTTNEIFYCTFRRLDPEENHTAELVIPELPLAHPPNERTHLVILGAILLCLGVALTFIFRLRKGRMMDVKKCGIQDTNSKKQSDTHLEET

Compound | ΔTm at 10 µM [1, 4] | Emax [2] | IC50 [2] | IC50 [3] | ΔTm at 10 µM [1]
COc1cc(-c2cccc(-c3cccc(NC(=O)c4nc5c(n4C)CCN(C)C5)c3Cl)c2Cl)ccc1CNC[C@@H](C)O [Embodiment 158, (R)—N-(2,2′-Dichloro-4″-(((2-hydroxypropyl)amino)methyl)-3″-methoxy-[1,1′:3′,1″-terphenyl]-3-yl)-1,5-dimethyl-4,5,6,7-tetrahydro-1H-imidazo[4,5-c]pyridine-2-carboxamide] | 10.3 °C | 95% | 1.7 nM | 6.4 nM | 
COc1nc(-c2cccc(-c3cccc(NC(=O)c4nc5c(n4C)CCN(C)C5)c3Cl)c2Cl)ccc1CN1CC(O)C1 [Embodiment 129, N-(2,2′-Dichloro-3′-(5-((3-hydroxyazetidin-1-yl)methyl)-6-methoxypyridin-2-yl)-[1,1′-biphenyl]-3-yl)-1,5-dimethyl-4,5,6,7-tetrahydro-1H-imidazo[4,5-c]pyridine-2-carboxamide] |  | 95% | 1 nM | 2.9 nM | 13.9 °C
COc1nc(-c2cccc(-c3cccc(NC(=O)c4nc5c(n4C)CCN(C)C5)c3Cl)c2Cl)ccc1CN1CC2(CC(O)C2)C1 [Embodiment 185, N-(2,2′-Dichloro-3′-(5-((6-hydroxy-2-azaspiro[3.3]heptan-2-yl)methyl)-6-methoxypyridin-2-yl)-[1,1′-biphenyl]-3-yl)-1,5-dimethyl-4,5,6,7-tetrahydro-1H-imidazo[4,5-c]pyridine-2-carboxamide] | 20.9 °C | 97% | 0.7 nM | 5.3 nM | 
COc1nc(-c2cccc(-c3cccc(NC(=O)c4nc5c(n4C)CCN(C)C5)c3Cl)c2Cl)ccc1CN1CC2(C1)CN(C(=O)C(F)F)C2 [Embodiment 190, N-(2,2′-Dichloro-3′-(5-((6-(2,2-difluoroacetyl)-2,6-diazaspiro[3.3]heptan-2-yl)methyl)-6-methoxypyridin-2-yl)-[1,1′-biphenyl]-3-yl)-1,5-dimethyl-4,5,6,7-tetrahydro-1H-imidazo[4,5-c]pyridine-2-carboxamide] | 14 °C | 97% | 0.8 nM | 8.5 nM | 
COc1nc(-c2cccc(-c3cccc(NC(=O)c4nc5c(n4C)CCN(C)C5)c3Cl)c2Cl)ccc1CN1C2CC1CN(C(C)=O)C2 [Embodiment 209, N-(3′-(5-((3-Acetyl-3,6-diazabicyclo[3.1.1]heptan-6-yl)methyl)-6-methoxypyridin-2-yl)-2,2′-dichloro-[1,1′-biphenyl]-3-yl)-1,5-dimethyl-4,5,6,7-tetrahydro-1H-imidazo[4,5-c]pyridine-2-carboxamide] | 10.7 °C | 90% |  | 7.1 nM | 
COc1nc(-c2cccc(-c3cccc(NC(=O)c4nc5c(n4C)CCN(C)C5)c3Cl)c2Cl)ccc1CN1CC2(C1)CN(C(=O)CC#N)C2 [Embodiment 191, N-(2,2′-Dichloro-3′-(5-((6-(2-cyanoacetyl)-2,6-diazaspiro[3.3]heptan-2-yl)methyl)-6-methoxypyridin-2-yl)-[1,1′-biphenyl]-3-yl)-1,5-dimethyl-4,5,6,7-tetrahydro-1H-imidazo[4,5-c]pyridine-2-carboxamide] | 11.7 °C | 97% |  | 4.8 nM | 
COc1nc(-c2cccc(-c3cccc(NC(=O)c4nc5c(n4C4CC4)CCN(C)C5)c3Cl)c2Cl)ccc1CN1CC(CO)C1 [Embodiment 245, 1-Cyclopropyl-N-(2,2′-dichloro-3′-(5-((3-(hydroxymethyl)azetidin-1-yl)methyl)-6-methoxypyridin-2-yl)-[1,1′-biphenyl]-3-yl)-5-methyl-4,5,6,7-tetrahydro-1H-imidazo[4,5-c]pyridine-2-carboxamide] | 10.2 °C | 93% |  | 4.4 nM | 
COc1nc(-c2cccc(-c3cccc(NC(=O)c4nc5c(n4C)CCN(C)C5)c3Cl)c2Cl)ncc1CN[C@H]1CCOC[C@@H]1O (relative stereo) [Embodiment 228, N-(2,2′-Dichloro-3′-(5-(((trans-3-hydroxytetrahydro-2H-pyran-4-yl)amino)methyl)-4-methoxypyrimidin-2-yl)-[1,1′-biphenyl]-3-yl)-1,5-dimethyl-4,5,6,7-tetrahydro-1H-imidazo[4,5-c]pyridine-2-carboxamide] | 11.6 °C | 95% |  | 4.2 nM | 
COc1nc(-c2cccc(-c3cccc(NC(=O)c4nc5c(n4C)CCN(C)C5)c3Cl)c2Cl)ccc1CN1CCCC[C@H]1C(=O)O [Embodiment 230, (S)-1-((6-(2,2′-Dichloro-3′-(1,5-dimethyl-4,5,6,7-tetrahydro-1H-imidazo[4,5-c]pyridine-2-carboxamido)-[1,1′-biphenyl]-3-yl)-2-methoxypyridin-3-yl)methyl)piperidine-2-carboxylic Acid] | 11.3 °C | 95% |  | 1.8 nM | 
CCn1c(C(=O)Nc2cccc(-c3cccc(-c4ccc(CN5CC6(COC6)C5)c(OC)n4)c3Cl)c2Cl)nc2c1CCN(C)C2 [Embodiment 237, N-(3′-(5-((2-Oxa-6-azaspiro[3.3]heptan-6-yl)methyl)-6-methoxypyridin-2-yl)-2,2′-dichloro-[1,1′-biphenyl]-3-yl)-1-ethyl-5-methyl-4,5,6,7-tetrahydro-1H-imidazo[4,5-c]pyridine-2-carboxamide] | 11.6 °C | 94% |  | 5.2 nM | 
COc1nc(-c2cccc(-c3cccc(NC(=O)c4nc5c(n4C)CCN(C)C5)c3Cl)c2Cl)ccc1CN1CC(C(=O)O)C1 [Embodiment 135, 1-((6-(2,2′-Dichloro-3′-(1,5-dimethyl-4,5,6,7-tetrahydro-1H-imidazo[4,5-c]pyridine-2-carboxamido)-[1,1′-biphenyl]-3-yl)-2-methoxypyridin-3-yl)methyl)azetidine-3-carboxylic Acid] | 16.7 °C | 98% | 3.1 nM | 1.2 nM | 
CCn1c(C(=O)Nc2cccc(-c3cccc(-c4ccc(CN5CC6(C5)CN(C(C)=O)C6)c(OC)n4)c3Cl)c2Cl)nc2c1CCN(C)C2 [Embodiment 238, N-(3′-(5-((6-Acetyl-2,6-diazaspiro[3.3]heptan-2-yl)methyl)-6-methoxypyridin-2-yl)-2,2′-dichloro-[1,1′-biphenyl]-3-yl)-1-ethyl-5-methyl-4,5,6,7-tetrahydro-1H-imidazo[4,5-c]pyridine-2-carboxamide] | 10.8 °C | 95% |  | 4.1 nM | 
COc1nc(-c2cccc(-c3cccc(NC(=O)c4nc5c(n4C)CCN(C)C5)c3Cl)c2Cl)ccc1CN1CC(C)(O)C1 [Embodiment 130, N-(2,2′-Dichloro-3′-(5-((3-hydroxy-3-methylazetidin-1-yl)methyl)-6-methoxypyridin-2-yl)-[1,1′-biphenyl]-3-yl)-1,5-dimethyl-4,5,6,7-tetrahydro-1H-imidazo[4,5-c]pyridine-2-carboxamide] |  | 97% | 1.2 nM | 4.8 nM | 18.1 °C
COc1cc(-c2cccc(-c3cccc(NC(=O)c4nc5c(n4C)CCN(C)C5)c3Cl)c2Cl)ccc1CNCCO [Embodiment 157, N-(2,2′-Dichloro-4″-(((2-hydroxyethyl)amino)methyl)-3″-methoxy-[1,1′:3′,1″-terphenyl]-3-yl)-1,5-dimethyl-4,5,6,7-tetrahydro-1H-imidazo[4,5-c]pyridine-2-carboxamide] | 11.2 °C | 95% | 1.5 nM | 4 nM | 
COc1nc(-c2cccc(-c3cccc(NC(=O)c4nc5c(n4C)CCN(C)C5)c3Cl)c2Cl)ccc1CN1C[C@@H]2C[C@H]1CN2C(C)=O [Embodiment 205, N-(3′-(5-(((1S,4S)-5-Acetyl-2,5-diazabicyclo[2.2.1]heptan-2-yl)methyl)-6-methoxypyridin-2-yl)-2,2′-dichloro-[1,1′-biphenyl]-3-yl)-1,5-dimethyl-4,5,6,7-tetrahydro-1H-imidazo[4,5-c]pyridine-2-carboxamide] | 13.3 °C | 96% |  | 8.8 nM | 
COc1nc(-c2cccc(-c3cccc(NC(=O)c4nc5c(n4C)CCN(C)C5)c3Cl)c2Cl)ccc1CN1CC[C@H]1CO [Embodiment 172, (S)—N-(2,2′-Dichloro-3′-(5-((2-(hydroxymethyl)azetidin-1-yl)methyl)-6-methoxypyridin-2-yl)-[1,1′-biphenyl]-3-yl)-1,5-dimethyl-4,5,6,7-tetrahydro-1H-imidazo[4,5-c]pyridine-2-carboxamide] |  | 94% |  | 6.3 nM | 13.9 °C
